Reference: patent US20190374512A1, “COMPOUNDS FOR TREATMENT OF PANCREATIC CANCER” (UNIVERSITY OF TENNESSEE RESEARCH FOUNDATION, priority 2018, published 2019)

Test system: PC-3/Txr tumors
Assay: PC-3/Txr tumor growth inhibition, oral dosing
Conditions: in vivo

Question: For `CC(=O)O[C@@]12CO[C@@H]1C[C@H](O)[C@@]1(C)C(=O)[C@H](O)C3=C(C)[C@@H](OC(=O)[C@H](O)[C@@H](NC(=O)OC(C)(C)C)c4ccccc4)C[C@@](O)([C@@H](OC(=O)c4ccccc4)[C@H]21)C3(C)C` [docetaxel], which “efficacy in PC-3/Txr tumors” value is on record?
Answer: lack of efficacy
